PubChem BioAssay AID624028 (Vanderbilt Specialized Chemistry Center, 2012)

Target: Metabotropic glutamate receptor 3 (Rattus norvegicus) (UniProt P31422)
Experiment: PubChem AID 624028
Conditions: TREx293 mGlu3/Galpha15, calcium fluorescence, antagonist mode

Metabotropic glutamate receptor 3 (Rattus norvegicus), sequence (P31422 whole entry, looked up): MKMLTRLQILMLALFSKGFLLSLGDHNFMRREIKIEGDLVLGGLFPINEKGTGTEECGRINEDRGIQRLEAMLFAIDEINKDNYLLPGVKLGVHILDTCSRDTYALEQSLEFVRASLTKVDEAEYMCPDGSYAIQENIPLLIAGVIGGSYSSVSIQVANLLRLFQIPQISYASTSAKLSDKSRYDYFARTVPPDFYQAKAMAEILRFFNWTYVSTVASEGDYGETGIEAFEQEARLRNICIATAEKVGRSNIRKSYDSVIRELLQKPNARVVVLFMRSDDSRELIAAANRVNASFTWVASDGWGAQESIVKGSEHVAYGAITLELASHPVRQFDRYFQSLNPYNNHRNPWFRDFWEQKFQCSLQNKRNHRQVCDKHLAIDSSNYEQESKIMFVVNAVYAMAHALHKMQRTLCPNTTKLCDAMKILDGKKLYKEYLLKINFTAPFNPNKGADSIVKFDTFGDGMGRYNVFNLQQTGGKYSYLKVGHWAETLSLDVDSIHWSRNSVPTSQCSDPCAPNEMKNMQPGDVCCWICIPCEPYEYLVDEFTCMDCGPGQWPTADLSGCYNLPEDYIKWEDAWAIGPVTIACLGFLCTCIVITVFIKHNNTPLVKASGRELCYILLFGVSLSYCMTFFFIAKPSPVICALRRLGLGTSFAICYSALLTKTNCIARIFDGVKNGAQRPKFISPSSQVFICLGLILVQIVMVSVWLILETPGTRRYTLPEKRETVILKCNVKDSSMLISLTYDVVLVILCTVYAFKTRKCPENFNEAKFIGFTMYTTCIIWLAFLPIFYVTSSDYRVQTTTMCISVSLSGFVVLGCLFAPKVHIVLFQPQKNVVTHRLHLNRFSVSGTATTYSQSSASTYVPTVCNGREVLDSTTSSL

IC50: 650 nM
Structure (SMILES): COc1ccc(C#Cc2ccc(C(=O)N3CCC[C@@H](CO)C3)cc2)cc1
